According to ChEMBL document CHEMBL1129812, “Oestrone 3-O-(N-acetyl)sulphamate, a potential molecular probe of the active site of oestrone sulphatase” (Bioorg Med Chem Lett, 1997):
Calls of active or inactive are those of the source. The rule behind the calls is not given here.

What was measured:
[1] = target: T1, Steryl-sulfatase (Homo sapiens) (UniProt P08842); test: Compound was tested for percent inhibitory activity against Estrone sulfatase 1 (E1-STS) at 100 uM in placental microsomes; conditions: Placenta
T1 sequence (whole entry): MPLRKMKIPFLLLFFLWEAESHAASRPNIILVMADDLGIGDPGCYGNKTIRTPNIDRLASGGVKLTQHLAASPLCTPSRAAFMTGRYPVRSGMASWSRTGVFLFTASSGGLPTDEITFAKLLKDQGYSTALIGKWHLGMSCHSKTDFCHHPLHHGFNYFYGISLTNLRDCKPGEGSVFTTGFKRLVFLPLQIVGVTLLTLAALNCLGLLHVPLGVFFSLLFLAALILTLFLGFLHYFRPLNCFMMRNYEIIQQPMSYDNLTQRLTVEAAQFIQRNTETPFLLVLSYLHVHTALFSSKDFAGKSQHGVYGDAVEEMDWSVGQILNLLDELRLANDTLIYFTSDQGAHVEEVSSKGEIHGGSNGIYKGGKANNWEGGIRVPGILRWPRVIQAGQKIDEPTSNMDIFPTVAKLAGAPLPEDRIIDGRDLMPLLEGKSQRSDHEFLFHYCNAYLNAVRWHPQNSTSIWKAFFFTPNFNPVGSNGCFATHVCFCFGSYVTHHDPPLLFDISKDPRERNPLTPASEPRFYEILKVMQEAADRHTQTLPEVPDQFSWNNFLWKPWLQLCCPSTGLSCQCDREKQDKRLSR

[2] = target: T1, Steryl-sulfatase (Homo sapiens); test: Compound was tested for percent inhibitory activity against Estrone sulfatase 1 (E1-STS) at 20 uM in placental microsomes; conditions: Placenta
[3] = target: T1, Steryl-sulfatase (Homo sapiens); test: Compound was tested for percent inhibitory activity against Estrone sulfatase 1 (E1-STS) at 50 uM in placental microsomes; conditions: Placenta
[4] = target: T1, Steryl-sulfatase (Homo sapiens); test: Compound was tested for percent inhibitory activity against Estrone sulfatase 1 (E1-STS) at 0.10 uM in placental microsomes; conditions: Placenta
[5] = target: T1, Steryl-sulfatase (Homo sapiens); test: Compound was tested for percent inhibitory activity against Estrone sulfatase 1 (E1-STS) at 0.20 uM in placental microsomes; conditions: Placenta
[6] = target: T1, Steryl-sulfatase (Homo sapiens); test: Compound was tested for percent inhibitory activity against Estrone sulfatase 1 (E1-STS) at 10 uM in placental microsomes; conditions: Placenta
[7] = target: T1, Steryl-sulfatase (Homo sapiens); test: Compound was tested for percent inhibitory activity against Estrone sulfatase 1 (E1-STS) at 25 uM in placental microsomes; conditions: Placenta
[8] = target: T2, Steryl-sulfatase (Rattus norvegicus) (UniProt P15589); test: In vivo inhibition of rat liver Estrone sulfatase 1 (E1-STS) by oral or subcutaneous dose; Almost complete inhibition; assay type: organism-based
T2 sequence (whole entry): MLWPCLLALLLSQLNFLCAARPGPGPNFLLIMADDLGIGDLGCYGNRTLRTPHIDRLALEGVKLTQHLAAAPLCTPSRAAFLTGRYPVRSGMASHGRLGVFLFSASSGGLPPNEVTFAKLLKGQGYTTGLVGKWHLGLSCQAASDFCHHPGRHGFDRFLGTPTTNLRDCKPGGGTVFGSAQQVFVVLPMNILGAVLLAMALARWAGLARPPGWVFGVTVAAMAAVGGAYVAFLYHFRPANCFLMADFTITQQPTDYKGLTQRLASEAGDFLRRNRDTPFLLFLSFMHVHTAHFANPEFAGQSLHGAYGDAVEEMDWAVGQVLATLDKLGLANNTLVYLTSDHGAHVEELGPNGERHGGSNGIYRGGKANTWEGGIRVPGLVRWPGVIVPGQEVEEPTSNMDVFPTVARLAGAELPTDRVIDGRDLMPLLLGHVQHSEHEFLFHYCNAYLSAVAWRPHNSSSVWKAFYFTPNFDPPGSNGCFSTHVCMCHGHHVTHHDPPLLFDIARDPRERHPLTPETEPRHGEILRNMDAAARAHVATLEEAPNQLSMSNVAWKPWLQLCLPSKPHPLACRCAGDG

[9] = target: T1, Steryl-sulfatase (Homo sapiens); conditions: Placenta; Microsomes; 0.1 uM
Description: Compound was tested for percent inhibitory activity against Estrone sulfatase 1 (E1-STS) at 0.1 uM in placental microsomes

[10] = target: T1, Steryl-sulfatase (Homo sapiens); conditions: Placenta; Microsomes; 0.2 uM
Description: Compound was tested for percent inhibitory activity against Estrone sulfatase 1 (E1-STS) at 0.2 uM in placental microsomes

[11] = target: T1, Steryl-sulfatase (Homo sapiens); conditions: Placenta; Microsomes; 1.0 uM
Description: Compound was tested for percent inhibitory activity against Estrone sulfatase 1 (E1-STS) at 1.0 uM in placental microsomes

[12] = target: T1, Steryl-sulfatase (Homo sapiens); test: In vitro percentage inhibition of Estrone sulfatase 1 (EI-STS) activity at concentration of 0.1 micro M in intact MCF-7 breast cancer cells; assay type: cell-based; conditions: MCF7

Row | Structure (SMILES) | inhibition [1] | inhibition [2] | inhibition [3] | inhibition [12] | also measured
1 | C[C@]12CC[C@@H]3c4ccc(OS(=O)(=O)N(Cc5ccccc5)Cc5ccccc5)cc4CCC3[C@@H]1CCC2=O (single isomer, unassigned) | 75% | 43% | 63% |  | 
2 | CC(=O)NS(=O)(=O)Oc1ccc2c(c1)CCC1[C@@H]2CC[C@]2(C)C(=O)CC[C@@H]12 (single isomer, unassigned) |  |  |  |  | inhibition [4]: 63%; inhibition [5]: 30%; inhibition [6]: 92%; inhibition [7]: > 99%
3 | C[C@]12CC[C@@H]3c4ccc(OS(N)(=O)=O)cc4CCC3[C@@H]1CCC2=O (single isomer, unassigned) |  |  |  |  | inhibition [8]: Active; inhibition [9]: 50%; inhibition [10]: 82%; inhibition [11]: 95%
4 | C[C@]12CC[C@@H]3c4ccc(OS(=O)(=O)N5CCCCC5)cc4CCC3[C@@H]1CCC2=O (single isomer, unassigned) | 20% | 13% | 17% |  | 
5 | CN(C)S(=O)(=O)Oc1ccc2c(c1)CCC1[C@@H]2CC[C@]2(C)C(=O)CC[C@@H]12 (single isomer, unassigned) |  |  |  | 50% | 
6 | CNS(=O)(=O)Oc1ccc2c(c1)CCC1[C@@H]2CC[C@]2(C)C(=O)CC[C@@H]12 (single isomer, unassigned) |  |  |  | 80% | 
